According to ChEMBL document CHEMBL1201862, “PubChem BioAssay data set” (2004):
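In this assay, cells in 96-well plates receive the compound at five concentrations for 48 hours. Endpoints are linearly interpolated between the surrounding concentrations. GI50 is the concentration that inhibits growth by half.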 Calls of active or inactive are those of the source. No stated cut-off is given here; in the data, active = GI50 up to about 1.1 µM and inactive = higher. Bridge positions count the residues as written; N and C are the ends. Where a SMILES comes first, the peptide text is derived from it. Peptide text beside a SMILES is read from it. [ ]: non-standard residue; d: D form. * marks the point of attachment. Aoe = N[C@@H](CCCCCC(=O)[C@@H]1CO1)C(=O)O; Cbz = O=C(OCc1ccccc1)*

How the values were obtained:
Assay in all cases: NCI anticancer screen, dose series, 48 h
786-0 = tested on: 786-0
A549 = tested on: A549
CAKI-1 = tested on: CAKI-1
CCRF-CEM = tested on: CCRF-CEM
HCT-116 = tested on: HCT-116
HL-60 = tested on: HL-60
KM12 = tested on: KM12
MDA-MB-231 = tested on: MDA-MB-231
NCI-H23 = tested on: NCI-H23
NCI-H522 = tested on: NCI-H522
OVCAR-4 = tested on: OVCAR-4
RXF 393 = tested on: RXF 393
SF-268 = tested on: SF-268
SK-MEL-5 = tested on: SK-MEL-5
SK-OV-3 = tested on: SK-OV-3
T47D = tested on: T47D
U-251 = tested on: U-251
UACC-257 = tested on: UACC-257
UACC-62 = tested on: UACC-62
HCC 2998 = tested on: HCC 2998

Structure (SMILES) | GI50 (786-0) | GI50 (A549) | GI50 (CAKI-1) | GI50 (CCRF-CEM) | GI50 (HCT-116) | GI50 (HL-60) | GI50 (KM12) | GI50 (MDA-MB-231) | GI50 (NCI-H23) | GI50 (NCI-H522) | GI50 (OVCAR-4) | GI50 (RXF 393) | GI50 (SF-268) | GI50 (SK-MEL-5) | GI50 (SK-OV-3) | GI50 (T47D) | GI50 (U-251) | GI50 (UACC-257) | GI50 (UACC-62) | GI50 (HCC 2998)
Cc1ccc(S(=O)(=O)O)cc1.c1cc2c(c(NC3=NCCN3)c1)CCCC2 | > 100 µM (inactive) | > 100 µM (inactive) | > 100 µM (inactive) | > 100 µM (inactive) | > 100 µM (inactive) | > 100 µM (inactive) | > 100 µM (inactive) | > 100 µM (inactive) | > 100 µM (inactive) | > 100 µM (inactive) | > 100 µM (inactive) | > 100 µM (inactive) | > 100 µM (inactive) | > 100 µM (inactive) | > 100 µM (inactive) | > 100 µM (inactive) | > 100 µM (inactive) | > 100 µM (inactive) | > 100 µM (inactive) | –
O=c1[nH]/c(=C/c2ccc3c(c2)OCO3)c(=O)[nH]/c1=C/c1ccc2c(c1)OCO2 | > 10 µM (inactive) | > 10 µM (inactive) | > 10 µM (inactive) | > 10 µM (inactive) | > 10 µM (inactive) | – | > 10 µM (inactive) | > 10 µM (inactive) | > 10 µM (inactive) | > 10 µM (inactive) | > 10 µM (inactive) | > 10 µM (inactive) | > 10 µM (inactive) | > 10 µM (inactive) | > 10 µM (inactive) | > 10 µM (inactive) | > 10 µM (inactive) | > 10 µM (inactive) | > 10 µM (inactive) | > 10 µM (inactive)
CN(C)CCNC(=O)c1cccc2c1Oc1cccc([N+](=O)[O-])c1O2 | 19.2 µM (inactive) | 16 µM (inactive) | 18.4 µM (inactive) | 29.6 µM (inactive) | 16.9 µM (inactive) | 17.1 µM (inactive) | 22.8 µM (inactive) | 4.33 µM (inactive) | 24.7 µM (inactive) | 16.1 µM (inactive) | – | – | 21.2 µM (inactive) | 19.1 µM (inactive) | 14 µM (inactive) | 14.8 µM (inactive) | 21 µM (inactive) | 18.5 µM (inactive) | 18.1 µM (inactive) | 23.7 µM (inactive)
Cc1ccc([N+](=O)[O-])cc1S(=O)(=O)Nc1ccc(C2=NN(C(=O)c3ccccc3)C(c3cccs3)C2)cc1 (stereo not drawn) | 17.9 µM (inactive) | 19.5 µM (inactive) | 26.2 µM (inactive) | 37.8 µM (inactive) | 22.3 µM (inactive) | 26.3 µM (inactive) | 32.7 µM (inactive) | 16.3 µM (inactive) | 15.6 µM (inactive) | 12.9 µM (inactive) | 25.6 µM (inactive) | 15.2 µM (inactive) | 20 µM (inactive) | 13.6 µM (inactive) | 20.6 µM (inactive) | 9.42 µM (inactive) | 20.8 µM (inactive) | 21.5 µM (inactive) | – | –
Cc1cccc2c1Oc1cc(Cl)ccc1C2NC(=O)CCN1CCOCC1 (stereo not drawn) | > 100 µM (inactive) | > 100 µM (inactive) | – | > 100 µM (inactive) | > 100 µM (inactive) | 32.2 µM (inactive) | > 100 µM (inactive) | > 100 µM (inactive) | > 100 µM (inactive) | > 100 µM (inactive) | > 100 µM (inactive) | – | > 100 µM (inactive) | > 100 µM (inactive) | > 100 µM (inactive) | > 100 µM (inactive) | > 100 µM (inactive) | > 100 µM (inactive) | 50.1 µM (inactive) | > 100 µM (inactive)
c1ccc(CNCCCCNCCCNCc2ccccc2)cc1 | 17.2 µM (inactive) | 17.4 µM (inactive) | 13.6 µM (inactive) | 13 µM (inactive) | 17.3 µM (inactive) | – | 20 µM (inactive) | 15.2 µM (inactive) | 22 µM (inactive) | 15.2 µM (inactive) | 17.8 µM (inactive) | 16.4 µM (inactive) | 18.8 µM (inactive) | 17.6 µM (inactive) | > 100 µM (inactive) | > 100 µM (inactive) | 17.8 µM (inactive) | 17.3 µM (inactive) | 16.6 µM (inactive) | 16.9 µM (inactive)
Cc1ccc(-n2cc([Si](C)(C)C)nn2)s1 | > 100 µM (inactive) | > 100 µM (inactive) | > 100 µM (inactive) | – | > 100 µM (inactive) | – | – | > 100 µM (inactive) | 68.4 µM (inactive) | > 100 µM (inactive) | > 100 µM (inactive) | – | > 100 µM (inactive) | 45.4 µM (inactive) | > 100 µM (inactive) | > 100 µM (inactive) | > 100 µM (inactive) | > 100 µM (inactive) | > 100 µM (inactive) | 81.3 µM (inactive)
CCN(CCC#N)C(=O)Nc1ccccc1 | > 100 µM (inactive) | > 100 µM (inactive) | > 100 µM (inactive) | > 100 µM (inactive) | > 100 µM (inactive) | – | 86.7 µM (inactive) | > 100 µM (inactive) | > 100 µM (inactive) | > 100 µM (inactive) | > 100 µM (inactive) | > 100 µM (inactive) | – | > 100 µM (inactive) | > 100 µM (inactive) | > 100 µM (inactive) | > 100 µM (inactive) | > 100 µM (inactive) | > 100 µM (inactive) | > 100 µM (inactive)
O=C1c2cc(I)ccc2N2CCN=C2N1Cc1ccccc1 | 96.6 µM (inactive) | > 100 µM (inactive) | > 100 µM (inactive) | > 100 µM (inactive) | > 100 µM (inactive) | 0.551 µM (active) | > 100 µM (inactive) | > 100 µM (inactive) | > 100 µM (inactive) | > 100 µM (inactive) | > 100 µM (inactive) | 23.7 µM (inactive) | > 100 µM (inactive) | > 100 µM (inactive) | 47.4 µM (inactive) | 58.7 µM (inactive) | 49.5 µM (inactive) | > 100 µM (inactive) | – | –
CNC(=O)C1CCCCNC(=O)CCC(NC(=O)OCc2ccccc2)C(=O)N1 (stereo not drawn) (Cbz-Glu-Lys-NHMe; lactam 1-2; configuration not given here) | > 100 µM (inactive) | > 100 µM (inactive) | > 100 µM (inactive) | > 100 µM (inactive) | > 100 µM (inactive) | > 100 µM (inactive) | > 100 µM (inactive) | > 100 µM (inactive) | > 100 µM (inactive) | > 100 µM (inactive) | > 100 µM (inactive) | > 100 µM (inactive) | > 100 µM (inactive) | > 100 µM (inactive) | > 100 µM (inactive) | > 100 µM (inactive) | > 100 µM (inactive) | > 100 µM (inactive) | > 100 µM (inactive) | –
O=C1N[C@@H](Cc2ccccc2)C(=O)N2CCC[C@@H]2C(=O)N[C@@H](CCCCCC(=O)[C@@H]2CO2)C(=O)N[C@H]1Cc1ccccc1 [TRAPOXIN B] (cyclo(FF[dP][Aoe])) | 0.00294 µM (active) | 0.00265 µM (active) | 0.00157 µM (active) | 0.0151 µM (active) | 0.000256 µM (active) | – | 0.000735 µM (active) | 0.161 µM (active) | – | 0.00052 µM (active) | 0.221 µM (active) | – | 0.0119 µM (active) | 0.000497 µM (active) | 0.05 µM (active) | 0.0034 µM (active) | 0.0027 µM (active) | – | 0.000435 µM (active) | 0.0343 µM (active)
